Assay: In vitro whitening test on coffee-stained bovine teeth (ΔW*)
Details: Example 6, MPS added to 2% hydrogen peroxide mouthwash
Procedure: The bovine teeth have initial L values of 57-65. The teeth are submerged in deionized water, then removed and soaked for 2 minutes in 20 mL of the test solution. The teeth are then rinsed three times with deionized water. Each such treatment cycle is repeated fourteen times, and after every two cycles values for L*, a* and b* are measured. These figures are used to calculate a whiteness score, W*, which is a measure of overall color change relative to pure white:
ΔW*=W*(treated)−W*(baseline)
The resulting instant whitening mouthwash is compared to a comparative 2% hydrogen peroxide whitening mouthwash composition using the procedure described in Example 5.
The comparative HP mouthwash is compared to the MPS mouthwash and the MPS/HP mouthwash in side-by-side experiments.

O=S(=O)([O-])O[O-].[K+].[K+] [MPS, potassium peroxymonosulfate]
whitening effect when added to a hydrogen peroxide mouthwash: significant and unexpected additive whitening effect

Reference: US20170172880A1, “Fast Dissolving Peroxymonosulfate Composition” (Colgate-Palmolive Company, priority 2015, published 2017)
